Results: ChEMBL document CHEMBL1201862, “PubChem BioAssay data set” (2004)
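Exposure lasted 48 hours, with cells grown in 96-well plates and compounds tested at five concentrations. GI50 marks 50% less growth.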 The source made the active and inactive calls. Rule as the data show it: active = GI50 up to about 1.1 µM and inactive = higher.

How the values were obtained:
Assay in all cases: inhibition of tumour cell growth, NCI panel, 48 h
SN12C = tested on: SN12C
XF498 = tested on: XF498
COLO 205 = tested on: COLO 205
DMS-273 = tested on: DMS-273
CAKI-1 = tested on: CAKI-1
DLD-1 = tested on: DLD-1
A549 = tested on: A549
SNB-78 = tested on: SNB-78
SF-295 = tested on: SF-295
A498 = tested on: A498
OVCAR-3 = tested on: OVCAR-3
TK-10 = tested on: TK-10
SF-539 = tested on: SF-539
ACHN = tested on: ACHN
HCT-116 = tested on: HCT-116
SNB-75 = tested on: SNB-75
U-251 = tested on: U-251
HOP-62 = tested on: HOP-62
SF-268 = tested on: SF-268
HOP-92 = tested on: HOP-92
HCT-15 = tested on: HCT-15
KM-20L2 = tested on: KM-20L2
OVCAR-8 = tested on: OVCAR-8
RXF 393 = tested on: RXF 393
SW-620 = tested on: SW-620
UACC-257 = tested on: UACC-257
SK-MEL-5 = tested on: SK-MEL-5
M19-MEL = tested on: M19-MEL
Malme-3M = tested on: Malme-3M
OVCAR-4 = tested on: OVCAR-4
K562 = tested on: K562
NCI-H460 = tested on: NCI-H460
IGROV-1 = tested on: IGROV-1
DMS-114 = tested on: DMS-114
EKVX = tested on: EKVX
UACC-62 = tested on: UACC-62
HOP-18 = tested on: HOP-18
RPMI-8226 = tested on: RPMI-8226
KM12 = tested on: KM12
OVCAR-5 = tested on: OVCAR-5
SNB-19 = tested on: SNB-19
SK-MEL-2 = tested on: SK-MEL-2
786-0 = tested on: 786-0
LOX IMVI = tested on: LOX IMVI
NCI-H23 = tested on: NCI-H23
HT-29 = tested on: HT-29
SR = tested on: SR
SK-MEL-28 = tested on: SK-MEL-28
CCRF-CEM = tested on: CCRF-CEM
UO-31 = tested on: UO-31
HL-60 = tested on: HL-60
LXFL 529 = tested on: LXFL 529
M14 = tested on: M14
SK-OV-3 = tested on: SK-OV-3
MOLT-4 = tested on: MOLT-4
NCI-H522 = tested on: NCI-H522
HCC 2998 = tested on: HCC 2998

CCC1=NC(CO)[C@H](c2ccccc2)O1 (stereo partly drawn)
GI50 (SN12C): > 100 µM (inactive) | GI50 (XF498): > 100 µM (inactive) | GI50 (COLO 205): > 100 µM (inactive) | GI50 (DMS-273): > 100 µM (inactive) | GI50 (CAKI-1): > 100 µM (inactive) | GI50 (DLD-1): > 100 µM (inactive) | GI50 (A549): > 100 µM (inactive) | GI50 (SNB-78): > 100 µM (inactive) | GI50 (SF-295): > 100 µM (inactive) | GI50 (A498): > 100 µM (inactive) | GI50 (OVCAR-3): > 100 µM (inactive) | GI50 (TK-10): > 100 µM (inactive) | GI50 (SF-539): > 100 µM (inactive) | GI50 (ACHN): > 100 µM (inactive) | GI50 (HCT-116): > 100 µM (inactive) | GI50 (SNB-75): > 100 µM (inactive) | GI50 (U-251): > 100 µM (inactive) | GI50 (HOP-62): > 100 µM (inactive) | GI50 (SF-268): > 100 µM (inactive) | GI50 (HOP-92): > 100 µM (inactive) | GI50 (HCT-15): > 100 µM | GI50 (KM-20L2): > 100 µM (inactive) | GI50 (OVCAR-8): > 100 µM (inactive) | GI50 (RXF 393): > 100 µM (inactive) | GI50 (SW-620): > 100 µM (inactive) | GI50 (UACC-257): > 100 µM (inactive) | GI50 (SK-MEL-5): > 100 µM (inactive) | GI50 (M19-MEL): > 100 µM (inactive) | GI50 (Malme-3M): > 100 µM (inactive) | GI50 (OVCAR-4): > 100 µM (inactive) | GI50 (K562): > 100 µM (inactive) | GI50 (NCI-H460): > 100 µM (inactive) | GI50 (IGROV-1): > 100 µM (inactive) | GI50 (DMS-114): > 100 µM (inactive) | GI50 (EKVX): > 100 µM (inactive) | GI50 (UACC-62): > 100 µM (inactive) | GI50 (HOP-18): > 100 µM (inactive) | GI50 (RPMI-8226): > 100 µM (inactive) | GI50 (KM12): > 100 µM (inactive) | GI50 (OVCAR-5): > 100 µM (inactive) | GI50 (SNB-19): > 100 µM (inactive) | GI50 (SK-MEL-2): > 100 µM (inactive) | GI50 (786-0): > 100 µM (inactive) | GI50 (LOX IMVI): > 100 µM (inactive) | GI50 (NCI-H23): > 100 µM (inactive) | GI50 (HT-29): > 100 µM (inactive) | GI50 (SR): > 100 µM (inactive) | GI50 (SK-MEL-28): > 100 µM (inactive)

COc1ccc2c([nH]c3c(O)c(-c4c(C)cc5c([nH]c6c(CC=C(C)C)c(OC)ccc65)c4O)c(C)cc32)c1CC=C(C)C [BISMURRAYAFOLINE B]
GI50 (SN12C): > 100 µM (inactive) | GI50 (COLO 205): > 100 µM (inactive) | GI50 (DMS-273): > 100 µM (inactive) | GI50 (CCRF-CEM): > 100 µM (inactive) | GI50 (CAKI-1): > 100 µM (inactive) | GI50 (DLD-1): > 100 µM (inactive) | GI50 (A549): > 100 µM (inactive) | GI50 (SNB-78): > 100 µM (inactive) | GI50 (SF-295): > 100 µM (inactive) | GI50 (A498): > 100 µM (inactive) | GI50 (OVCAR-3): > 100 µM (inactive) | GI50 (TK-10): > 100 µM (inactive) | GI50 (UO-31): > 100 µM (inactive) | GI50 (SF-539): > 100 µM (inactive) | GI50 (HL-60): > 100 µM (inactive) | GI50 (ACHN): > 100 µM (inactive) | GI50 (HCT-116): > 100 µM (inactive) | GI50 (SNB-75): > 100 µM (inactive) | GI50 (LXFL 529): > 100 µM (inactive) | GI50 (U-251): > 100 µM (inactive) | GI50 (M14): > 100 µM (inactive) | GI50 (HOP-62): > 100 µM (inactive) | GI50 (SF-268): > 100 µM (inactive) | GI50 (HOP-92): > 100 µM (inactive) | GI50 (HCT-15): > 100 µM | GI50 (KM-20L2): > 100 µM (inactive) | GI50 (SK-OV-3): > 100 µM (inactive) | GI50 (MOLT-4): > 100 µM (inactive) | GI50 (OVCAR-8): > 100 µM (inactive) | GI50 (RXF 393): > 100 µM (inactive) | GI50 (SW-620): > 100 µM (inactive) | GI50 (UACC-257): > 100 µM (inactive) | GI50 (SK-MEL-5): > 100 µM (inactive) | GI50 (M19-MEL): > 100 µM (inactive) | GI50 (Malme-3M): > 100 µM (inactive) | GI50 (OVCAR-4): > 100 µM (inactive) | GI50 (K562): > 100 µM (inactive) | GI50 (NCI-H460): > 100 µM (inactive) | GI50 (IGROV-1): > 100 µM (inactive) | GI50 (DMS-114): > 100 µM (inactive) | GI50 (NCI-H522): > 100 µM (inactive) | GI50 (UACC-62): > 100 µM (inactive) | GI50 (HOP-18): > 100 µM (inactive) | GI50 (RPMI-8226): > 100 µM (inactive) | GI50 (KM12): > 100 µM (inactive) | GI50 (OVCAR-5): > 100 µM (inactive) | GI50 (SNB-19): > 100 µM (inactive) | GI50 (SK-MEL-2): > 100 µM (inactive) | GI50 (786-0): > 100 µM (inactive) | GI50 (HCC 2998): > 100 µM (inactive) | GI50 (LOX IMVI): > 100 µM (inactive) | GI50 (NCI-H23): > 100 µM (inactive) | GI50 (HT-29): > 100 µM (inactive) | GI50 (SR): > 100 µM (inactive) | GI50 (SK-MEL-28): > 100 µM (inactive)
